This is an account of results in patent publication US7335501B1, “Phytases and methods for producing these phytases” (Adisseo France S.A.S., priority 2001, dated 2008).

The assay relates to Penicillium sp. CBS 109899 phytase (wild type, SEQ ID NO: 3), in crude fungal extract. The experiment in a line: Michaelis-Menten constants of the phytase contained in the crude fungal extract (phosphate release from sodium phytate, method of Shimizu). The assay is classed as biochemical. The conditions noted are these: substrate sodium phytate, 250 mM acetate buffer with 1 mM CaCl2, pH 5.5, 37° C. As for the experimental part: The measurement of phytase activity is based on the method of Shimizu (1992, Biosci. Biotech. Biochem. 56(8), 1266-1269). The principle of this method consists in measuring the amount of inorganic phosphate released during the enzymatic reaction of the phytase with its substrate (solution of sodium phytate prepared at 10 g/l in a 250 mM acetate buffer containing 1 mM CaCl2, pH 5.5). The amount of inorganic phosphate released is measured by reaction of this phosphate with a chromogenic reagent (1 volume of iron sulfate at 10.8% mixed extemporaneously with 4 volumes of ammonium molybdate at 0.012M H2SO4). This reaction leads, in highly acidic medium, to the formation of a colored phosphomolybdate complex (in the presence of Fe^2+), and the amount of complex formed is quantified by measuring the absorbance at 700 nm of the colored solution generated, on a spectrophotometer.
Three reactions are carried out in parallel in order to produce enzymatic kinetics at 10, 20 and 30 minutes at 37° C. […] The sample interference is determined by adding the 20% trichloroacetic acid and then the phytic acid to the crude extract, which may or may not be diluted. […] The intensity of the blue coloration is measured by spectrophotometry at 700 nm. […] The enzymatic activity is determined using the rate of appearance of the phosphate in the course of the enzymatic kinetics. […]

Structures are written as SMILES.

Turning to `O=P(O)(O)O[C@H]1[C@H](OP(=O)(O)O)[C@@H](OP(=O)(O)O)[C@H](OP(=O)(O)O)[C@@H](OP(=O)(O)O)[C@H]1OP(=O)(O)O` [sodium phytate], the “Vmapp (maximum reaction rate)” value was 1.425 μmol of phosphate released per minute and per mg of sample. Moreover, for the setting “substrate concentrations and incubation times modified, read-out: Kmapp”, the Km is 550 µM.
